In patent US20230406860A1, “HETEROCYCLIC SPIRO COMPOUNDS AND METHODS OF USE” (AMGEN INC., priority 2020, published 2023):
pIC50: −log10 of the molar value.

Tests used:
[1] = target: GDP-bound KRAS protein (aa 1-169), containing both G12C and C118A amino acid substitutions (Homo sapiens, UniProt P01116, C118A/G12C); experiment: Coupled nucleotide exchange assay (SOS-mediated, AlphaScreen); type: biochemical; settings: 2 h compound pre-incubation; read-out: Avg 2 h Coupled exchange IC50
Procedure: Coupled Nucleotide Exchange Assay:
For all subsequent steps, DTT was added to the reaction buffer at a final concentration of 1 mM. […] The assay plates were then read on a plate reader measuring luminescence signal. Signal intensity of compound-containing wells were normalized to DMSO control, and data were analyzed using a 4-parameter logistic model to calculate IC50 values.

[2] = test system: A549 (human lung carcinoma) cells; experiment: Cell viability assay (CellTiter-Glo), A549; type: cell-based; settings: 72 h
Procedure: (§1) MIA PaCa-2 (human pancreatic carcinoma; ATCC CRL-1420) or A549 (human lung carcinoma; ATCC CCL-185) cells were cultured in RPMI 1640 medium containing 10% fetal bovine serum and 1× penicillin/streptomycin/L-glutamine. Cells were seeded in 384-well plates at a density of 1.67E+04 cells/mL and incubated at 37° C., 5% CO2, overnight. Serially-diluted compound or DMSO was added to the cells, and plates were incubated at 37° C., 5% CO2 for 72 h. Cell viability was measured using a CellTiter-Glo® Luminescent Cell Viability Assay kit (Promega) according to the manufacturer's protocol. The luminescence signal of treated samples was normalized to DMSO control, and data were analyzed using a 4-parameter logistic model to calculate IC50 values.

[3] = test system: MIA PaCa-2 (human pancreatic carcinoma) cells; experiment: Cell viability assay (CellTiter-Glo), MIA PaCa-2; type: cell-based; settings: 72 h
Procedure: as §1

GDP-bound KRAS protein (aa 1-169), containing both G12C and C118A amino acid substitutions, sequence (P01116 1-169 isoform P01116-2 G12C/C118A): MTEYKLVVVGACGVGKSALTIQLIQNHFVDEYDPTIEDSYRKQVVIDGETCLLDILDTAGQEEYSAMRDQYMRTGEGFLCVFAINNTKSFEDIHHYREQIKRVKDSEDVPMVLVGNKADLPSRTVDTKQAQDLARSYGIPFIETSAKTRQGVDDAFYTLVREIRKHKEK

IC50 [1] [nM] | SMILES | pIC50 [1] | pIC50 [2] | pIC50 [3]
– | C=CC(=O)N1CC2(CCN(c3nc4c(c(N[C@H](Cc5nnc[nH]5)CC(C)C)n3)CCCC4)C2)C1 [Example 1-19, 1-(6-(4-(((2S)-4-methyl-1-(4H-1,2,4-triazol-3-yl)-2-pentanyl)amino)-5,6,7,8-tetrahydro-2-quinazolinyl)-2,6-diazaspiro[3.4]octan-2-yl)-2-propen-1-one] | 5.38 | < 5.30 | < 5.30
84 | C=CC(=O)N1CC2(CCN(c3nc(N[C@H](CC(=O)NC)CC(C)C)c4ccc(C(C)C)cc4n3)C2)C1 [Example 1-20, (3S)-N,5-dimethyl-3-((7-(2-propanyl)-2-(2-(2-propenoyl)-2,6-diazaspiro[3.4]octan-6-yl)-4-quinazolinyl)amino)hexanamide] | – | 4.67 | 7.12
– | C=CC(=O)N1CC2(CCN(c3nc4c(c(N[C@H](Cc5nnc(C)o5)CC(C)C)n3)CCCC4)C2)C1 [Example 1-22, 1-(6-(4-(((2S)-4-methyl-1-(5-methyl-1,3,4-oxadiazol-2-yl)-2-pentanyl)amino)-5,6,7,8-tetrahydro-2-quinazolinyl)-2,6-diazaspiro[3.4]octan-2-yl)-2-propen-1-one] | 6.08 | < 4.60 | 6.55
– | C=CC(=O)N1CC2(CCN(c3nc4c(c(N[C@H](Cc5ncc[nH]5)CC(C)C)n3)CCCC4)C2)C1 [Example 1-23, 1-(6-(4-(((2S)-1-(1H-imidazol-2-yl)-4-methyl-2-pentanyl)amino)-5,6,7,8-tetrahydro-2-quinazolinyl)-2,6-diazaspiro[3.4]octan-2-yl)-2-propen-1-one] | 5.94 | < 5.30 | 5.55
– | C=CC(=O)N1CC2(CCN(c3nc(N[C@H](CC(=O)NC)CC(C)C)c4ccc(C)cc4n3)C2)C1 [Example 1-25, (3S)-N,5-dimethyl-3-((7-methyl-2-(2-(2-propenoyl)-2,6-diazaspiro[3.4]octan-6-yl)-4-quinazolinyl)amino)hexanamide] | 6.47 | < 5.30 | 6.04
– | C=CC(=O)N1CC2(CCN(c3nc(N[C@H](CC(=O)NC)CC(C)C)c4ccc(C#N)cc4n3)C2)C1 [Example 1-26, (3S)-3-((7-cyano-2-(2-(2-propenoyl)-2,6-diazaspiro[3.4]octan-6-yl)-4-quinazolinyl)amino)-N,5-dimethylhexanamide] | 6.74 | < 4.60 | 6.73
– | C=CC(=O)N1CC2(C1)CN(c1nc(N[C@H](CC(=O)NC)CC(C)C)c3ccccc3n1)CC2F (stereo partly drawn) [Example 1-27, (3S)-3-((2-(8-fluoro-2-(2-propenoyl)-2,6-diazaspiro[3.4]octan-6-yl)-4-quinazolinyl)amino)-N,5-dimethylhexanamide] | 5.46 | < 5.30 | < 5.30
– | C=CC(=O)N1CC2(C1)CN(c1nc3c(c(N[C@H](CC(=O)NC)CC(C)C)n1)CCC(C)C3)CC2F (stereo partly drawn) [Example 1-28, (3S)-3-((2-(8-fluoro-2-(2-propenoyl)-2,6-diazaspiro[3.4]octan-6-yl)-7-methyl-5,6,7,8-tetrahydro-4-quinazolinyl)amino)-N,5-dimethylhexanamide] | 6.71 | < 5.30 | 6.72
– | C=CC(=O)N1CC2(CCN(c3nc(N[C@H](CC(=O)NC)CC(C)C)c4ccc(Cl)cc4n3)C2)C1 [Example 1-30, (3S)-3-((7-chloro-2-(2-(2-propenoyl)-2,6-diazaspiro[3.4]octan-6-yl)-4-quinazolinyl)amino)-N,5-dimethylhexanamide] | 6.58 | 4.84 | 6.95
– | C=CC(=O)N1CC2(CCN(c3nc4c(c(N[C@H](CC(=O)NC)CC(C)C)n3)OCCC4)C2)C1 [Example 1-31, (3S)-N,5-dimethyl-3-((2-(2-(2-propenoyl)-2,6-diazaspiro[3.4]octan-6-yl)-7,8-dihydro-6H-pyrano[3,2-d]pyrimidin-4-yl)amino)hexanamide] | 6.37 | < 4.60 | 6.58
